Experimental data published in PubChem BioAssay AID2060600 (Molecular Pharmacology Branch, DTP, NCI, 2025).

Tested on: 996289-038-R-J1-PDC complex spheroid viability
Assay: Anticancer human tumor 996289-038-R-J1-PDC patient-derived colon adenocarcinoma cell line growth inhibition [CLK]
Details: for IC50: curve of first compound; for viability, T/C: stronger effect = lower value; active = viability on the fitted dose curve at most 10% of control; inactive = the rest
Method in brief: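 Multi-cell-type spheroids combined patient-derived tumor cells with HUVEC endothelial cells and human mesenchymal stem cells. Paired agents were dosed in half-log steps down from about clinical Cmax, or from 10 microM where Cmax was unknown.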
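Note: spheroids exposed to the agents for 7 days before readout.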

CC1COCCN1c1cc(C2(S(C)(=N)=O)CC2)nc(-c2ccnc3[nH]ccc23)n1 (centres undefined) + CNC(=O)c1ccc(Nc2nc(OC3CCCC3)c3c(-c4ccc5nc(C)oc5c4)c[nH]c3n2)c(OC)c1
> 10000 nM: IC50 (second compound 0.0316 µM) | IC50 (second compound 0.1 µM) | IC50 (second compound 0.316 µM)
3670 nM: IC50 (second compound 1 µM)
2130 nM: IC50 (second compound 10 µM)
2840 nM: IC50 (second compound 3.16 µM)
inactive: viability, T/C (second compound 0.0316 µM, first compound 0.0316 µM) 116% | viability, T/C (second compound 0.0316 µM, first compound 0.1 µM) 126% | viability, T/C (second compound 0.0316 µM, first compound 0.316 µM) 118% | viability, T/C (second compound 0.0316 µM, first compound 1 µM) 117% | viability, T/C (second compound 0.0316 µM, first compound 3.16 µM) 122% | viability, T/C (second compound 0.0316 µM, first compound 10 µM) 100% | viability, T/C (second compound 0.1 µM, first compound 0.0316 µM) 129% | viability, T/C (second compound 0.1 µM, first compound 0.1 µM) 135% | viability, T/C (second compound 0.1 µM, first compound 0.316 µM) 129% | viability, T/C (second compound 0.1 µM, first compound 1 µM) 122% | viability, T/C (second compound 0.1 µM, first compound 3.16 µM) 121% | viability, T/C (second compound 0.1 µM, first compound 10 µM) 88.1% | viability, T/C (second compound 0.316 µM, first compound 0.0316 µM) 84.8% | viability, T/C (second compound 0.316 µM, first compound 0.1 µM) 83% | viability, T/C (second compound 0.316 µM, first compound 0.316 µM) 79.4% | viability, T/C (second compound 0.316 µM, first compound 1 µM) 73.2% | viability, T/C (second compound 0.316 µM, first compound 3.16 µM) 73.8% | viability, T/C (second compound 0.316 µM, first compound 10 µM) 58.5% | viability, T/C (second compound 1 µM, first compound 0.0316 µM) 70.3% | viability, T/C (second compound 1 µM, first compound 0.1 µM) 71.5% | viability, T/C (second compound 1 µM, first compound 0.316 µM) 68.8% | viability, T/C (second compound 1 µM, first compound 1 µM) 57.5% | viability, T/C (second compound 1 µM, first compound 3.16 µM) 54.2% | viability, T/C (second compound 1 µM, first compound 10 µM) 36.9% | viability, T/C (second compound 3.16 µM, first compound 0.0316 µM) 68.5% | viability, T/C (second compound 3.16 µM, first compound 0.1 µM) 60.9% | viability, T/C (second compound 3.16 µM, first compound 0.316 µM) 55.8% | viability, T/C (second compound 3.16 µM, first compound 1 µM) 64% | viability, T/C (second compound 3.16 µM, first compound 3.16 µM) 46% | viability, T/C (second compound 3.16 µM, first compound 10 µM) 39.8% | viability, T/C (second compound 10 µM, first compound 0.0316 µM) 59.3% | viability, T/C (second compound 10 µM, first compound 0.1 µM) 55.7% | viability, T/C (second compound 10 µM, first compound 0.316 µM) 57% | viability, T/C (second compound 10 µM, first compound 1 µM) 53.7% | viability, T/C (second compound 10 µM, first compound 3.16 µM) 48.1% | viability, T/C (second compound 10 µM, first compound 10 µM) 31%

NC(=O)C(=Cn1cnc(-c2cc(C(F)(F)F)cc(C(F)(F)F)c2)n1)c1cncnc1 + CNC(=O)c1ccc(Nc2nc(OC3CCCC3)c3c(-c4ccc5nc(C)oc5c4)c[nH]c3n2)c(OC)c1
40.5 nM: IC50 (second compound 0.316 µM)
< 9.49 nM: IC50 (second compound 3.16 µM) | IC50 (second compound 10 µM)
101 nM: IC50 (second compound 0.0316 µM)
13 nM: IC50 (second compound 1 µM)
active: viability, T/C (second compound 1 µM, first compound 0.3 µM) 8.6% | viability, T/C (second compound 1 µM, first compound 0.949 µM) 8.98% | viability, T/C (second compound 1 µM, first compound 3 µM) 8.12% | viability, T/C (second compound 3.16 µM, first compound 0.3 µM) 7.76% | viability, T/C (second compound 3.16 µM, first compound 0.949 µM) 6.08% | viability, T/C (second compound 3.16 µM, first compound 3 µM) 5.36% | viability, T/C (second compound 10 µM, first compound 0.3 µM) 8.08% | viability, T/C (second compound 10 µM, first compound 0.949 µM) 5.49% | viability, T/C (second compound 10 µM, first compound 3 µM) 4.93%
inactive: viability, T/C (second compound 0.0316 µM, first compound 0.00949 µM) 98.9% | viability, T/C (second compound 0.0316 µM, first compound 0.03 µM) 79.4% | viability, T/C (second compound 0.0316 µM, first compound 0.0949 µM) 50.9% | viability, T/C (second compound 0.0316 µM, first compound 0.3 µM) 31.2% | viability, T/C (second compound 0.0316 µM, first compound 0.949 µM) 20% | viability, T/C (second compound 0.0316 µM, first compound 3 µM) 19.5% | viability, T/C (second compound 0.1 µM, first compound 0.00949 µM) 93.8% | viability, T/C (second compound 0.1 µM, first compound 0.03 µM) 71.5% | viability, T/C (second compound 0.1 µM, first compound 0.0949 µM) 45.8% | viability, T/C (second compound 0.1 µM, first compound 0.3 µM) 27.6% | viability, T/C (second compound 0.1 µM, first compound 0.949 µM) 17.7% | viability, T/C (second compound 0.1 µM, first compound 3 µM) 19% | viability, T/C (second compound 0.316 µM, first compound 0.00949 µM) 68.9% | viability, T/C (second compound 0.316 µM, first compound 0.03 µM) 55.2% | viability, T/C (second compound 0.316 µM, first compound 0.0949 µM) 33.8% | viability, T/C (second compound 0.316 µM, first compound 0.3 µM) 15% | viability, T/C (second compound 0.316 µM, first compound 0.949 µM) 13.4% | viability, T/C (second compound 0.316 µM, first compound 3 µM) 13.8% | viability, T/C (second compound 1 µM, first compound 0.00949 µM) 53.7% | viability, T/C (second compound 1 µM, first compound 0.03 µM) 40.1% | viability, T/C (second compound 1 µM, first compound 0.0949 µM) 19.5% | viability, T/C (second compound 3.16 µM, first compound 0.00949 µM) 47.8% | viability, T/C (second compound 3.16 µM, first compound 0.03 µM) 35.6% | viability, T/C (second compound 3.16 µM, first compound 0.0949 µM) 15.5% | viability, T/C (second compound 10 µM, first compound 0.00949 µM) 44.5% | viability, T/C (second compound 10 µM, first compound 0.03 µM) 33.8% | viability, T/C (second compound 10 µM, first compound 0.0949 µM) 12.8%
77 nM: IC50 (second compound 0.1 µM)
